Details: [M+H]+; instrument: TW

CCCSP(=O)(OCC)SCCC [Ethoprophos]
collision cross section (N2): 149.27 Å²

N#CC(CCc1ccc(Cl)cc1)(Cn1cncn1)c1ccccc1 (configuration not stated) [Fenbuconazole]
collision cross section (N2): 182.44 Å²

Cc1nn(C)c(Oc2ccccc2)c1/C=N/OCc1ccc(C(=O)OC(C)(C)C)cc1 [Fenpyroximate]
collision cross section (N2): 215.89 Å²

N#Cc1nn(-c2c(Cl)cc(C(F)(F)F)cc2Cl)c(N)c1S(=O)C(F)(F)F (configuration not stated) [Fipronil]
collision cross section (N2): 180.77 Å²

CC1(C)OC(=O)C(OCC2CC2)=C1c1ccc(S(C)(=O)=O)cc1 [Firocoxib]
collision cross section (N2): 182.1 Å²

Nc1c(Cl)c(F)nc(OCC(=O)O)c1Cl [Fluroxypyr]
collision cross section (N2): 140.69 Å²

CCCCOC(=O)N(C)SN(C)C(=O)Oc1cccc2c1OC(C)(C)C2 [Furathiocarb]
collision cross section (N2): 190.73 Å²

O=C(CCCN1CCC(O)(c2ccc(Cl)cc2)CC1)c1ccc(F)cc1 [Haloperidol]
collision cross section (N2): 193.9 Å²

CC1C(c2ccc(Cl)cc2)SC(=O)N1C(=O)NC1CCCCC1 (configuration not stated) [Hexythiazox]
collision cross section (N2): 183.83 Å²

O=[N+]([O-])c1cnc(CO)n1CCO [Hydroxymetronidazole]
collision cross section (N2): 128.2 Å²

C=CCOC(Cn1ccnc1)c1ccc(Cl)cc1Cl (configuration not stated) [Imazalil]
collision cross section (N2): 164.99 Å²

O=[N+]([O-])/N=C1\NCCN1Cc1ccc(Cl)nc1 [Imidacloprid]
collision cross section (N2): 149.62 Å²

CO[C@@H]1[C@@H](O[C@@H]2O[C@H](C)[C@@H](O[C@H]3C[C@@](C)(O)[C@@H](OC(=O)CC(C)C)[C@H](C)O3)[C@H](N(C)C)[C@H]2O)[C@@H](CC=O)C[C@@H](C)[C@@H](O)/C=C/C=C/C[C@@H](C)OC(=O)C[C@H]1OC(C)=O [Josamycin]
collision cross section (N2): 306.8 Å²

CN1CCN(c2c(F)cc3c(=O)c(C(=O)O)cn4c3c2OCN4C)CC1 [Marbofloxacin]
collision cross section (N2): 179.6 Å²

Cc1cccc(Nc2ccccc2C(=O)O)c1C [Mefenamic acid]
collision cross section (N2): 150.5 Å²

Cc1nnc(-c2ccccc2)c(=O)n1N [Metamitron]
collision cross section (N2): 140.93 Å²

CNC(=O)N(C)c1nc2ccccc2s1 [Methabenzthiazuron]
collision cross section (N2): 142.47 Å²

CON(C)C(=O)Nc1ccc(Br)cc1 [Metobromuron]
collision cross section (N2): 145.41 Å²

Cc1ncc([N+](=O)[O-])n1CCO [Metronidazole]
collision cross section (N2): 124.2 Å²

O=C(O)\C2=C\N(c1cc(c(F)cc1C2=O)N3CCNCC3)CC [Norfloxacine]
collision cross section (N2): 171 Å²

O=C(NC(=O)c1c(F)cccc1F)Nc1ccc(OC(F)(F)C(F)OC(F)(F)F)c(Cl)c1 (configuration not stated) [Novaluron]
collision cross section (N2): 196.35 Å²

C/N=C(/O)CSP(=O)(OC)OC [Omethoate]
collision cross section (N2): 134.62 Å²

CCOP(=O)(OCC)Oc1ccc([N+](=O)[O-])cc1 [Paraoxon-ethyl]
collision cross section (N2): 156.76 Å²

O=C(Nc1ccccc1)N(Cc1ccc(Cl)cc1)C1CCCC1 [Pencycuron]
collision cross section (N2): 179.71 Å²

Cc1nc(N(C)C)nc(OC(=O)N(C)C)c1C [Pirimicarb]
collision cross section (N2): 154.68 Å²

CN1C(/C(O)=N/c2ccccn2)=C(O)c2ccccc2S1(=O)=O [Piroxicam]
collision cross section (N2): 170.9 Å²

O=C2\C(=C(/N(N2c1ccccc1)C)C)C(C)C [Propyphenazone]
collision cross section (N2): 150 Å²

CCCN(CCC)C(=O)SCc1ccccc1 [Prosulfocarb]
collision cross section (N2): 156.95 Å²

COc1nc(C)nc(NC(=O)NS(=O)(=O)c2ccccc2CCC(F)(F)F)n1 [Prosulfuron]
collision cross section (N2): 187.01 Å²

COC(=O)N(OC)c1ccccc1COc1ccn(-c2ccc(Cl)cc2)n1 [Pyraclostrobin]
collision cross section (N2): 183.19 Å²

CN1CCCN=C1/C=C/c1cccs1 [Pyrantel]
collision cross section (N2): 143 Å²

CC(COc1ccc(Oc2ccccc2)cc1)Oc1ccccn1 (configuration not stated) [Pyriproxifen]
collision cross section (N2): 182.76 Å²

C=C1C[C@@]23CC[C@H]4[C@@](C)(CCC[C@@]4(C)C(=O)O[C@@H]4O[C@H](CO)[C@@H](O)[C@H](O)[C@H]4O)[C@@H]2CC[C@]1(O[C@@H]1O[C@H](CO)[C@@H](O)[C@H](O[C@@H]2O[C@H](CO)[C@@H](O)[C@H](O)[C@H]2O)[C@H]1O[C@@H]1O[C@H](CO)[C@@H](O)[C@H](O)[C@H]1O)C3 [Rebaudioside A]
collision cross section (N2): 299.48 Å²

Fc1ccc(cc1)N\3c2cc(c(F)cc2C(=O)C(/C(=O)O)=C/3)N4CCNCC4 [Sarafloxacine]
collision cross section (N2): 202 Å²

CCNc1nc(Cl)nc(NCC)n1 [Simazine]
collision cross section (N2): 142.09 Å²

C[C@]12Cc3cn[nH]c3C[C@@H]1CC[C@@H]1[C@@H]2CC[C@@]2(C)[C@H]1CC[C@]2(C)O [Stanozolol]
collision cross section (N2): 185.2 Å²

C=C1C[C@@]23CC[C@H]4[C@@](C)(CCC[C@@]4(C)C(=O)O)[C@@H]2CC[C@]1(O[C@@H]1O[C@H](CO)[C@@H](O)[C@H](O)[C@H]1O[C@@H]1O[C@H](CO)[C@@H](O)[C@H](O)[C@H]1O)C3 [Steviolbioside]
collision cross section (N2): 235.78 Å²

Cc1ccnc(NS(=O)(=O)c2ccc(N)cc2)n1 [Sulfamerazine]
collision cross section (N2): 154.8 Å²

Cc1cc(NS(=O)(=O)c2ccc(N)cc2)no1 [Sulfamethoxazole]
collision cross section (N2): 146.3 Å²

Nc1ccc(S(=O)(=O)Nc2ccccn2)cc1 [Sulfapyridine]
collision cross section (N2): 142.3 Å²

Nc1ccc(S(=O)(=O)Nc2cnc3ccccc3n2)cc1 [Sulfaquinoxaline]
collision cross section (N2): 164.8 Å²

O=C(NC(=O)c1c(F)cccc1F)Nc1cc(Cl)c(F)c(Cl)c1F [Teflubenzuron]
collision cross section (N2): 171.81 Å²

CC/C(=N\OC/C=C/Cl)C1=C(O)CC(C2CCOCC2)CC1=O (configuration not stated) [Tepraloxydim]
collision cross section (N2): 184.74 Å²

FC(F)C(F)(F)OCC(Cn1cncn1)c1ccc(Cl)cc1Cl (configuration not stated) [Tetraconazole]
collision cross section (N2): 174.34 Å²

C=C[C@]1(C)C[C@@H](OC(=O)CSCCN(CC)CC)C2(C)C(C)CC[C@]3(CCC(=O)[C@@H]23)[C@@H](C)[C@@H]1O (some centres not stated) [Tiamulin]
collision cross section (N2): 218.9 Å²

CCOC(=O)C1CC(=O)C(=C(O)C2CC2)C(=O)C1 (configuration not stated) [Trinexapac-ethyl]
collision cross section (N2): 152.92 Å²

C=C[C@]1(C)C[C@@H](OC(=O)CSC(C)(C)CNC(=O)[C@H](N)C(C)C)[C@]2(C)[C@H](C)CC[C@]3(CCC(=O)[C@H]32)[C@@H](C)[C@@H]1O [Valnemulin]
collision cross section (N2): 233.3 Å²
